Results taken from patent publication US9211310B2, “Use of a Chinese medicine composition in preparing medicaments for treating secondary prevention of myocardial infarction” (TASLY PHARMACEUTICAL GROUP CO., LTD, priority 2010, dated 2015).

System: patients after acute myocardial infarction
Test: Angina pectoris score, total and single (frequency/attack times, duration, pain degree, dose of nitroglycerin), same clinical trial
Format: in vivo, human
Set-up: total angina pectoris score, Md / total angina pectoris score, Mean: scale not given here
Conditions: for patients with change of dose of nitroglycerin score −6 (%) / distribution of total angina pectoris score: Medium, number of patients / distribution of total angina pectoris score: Medium, percentage of patients / distribution of total angina pectoris score: Mild, number of patients / distribution of total angina pectoris score: Mild, percentage of patients / distribution of total angina pectoris score: Severe, number of patients / distribution of total angina pectoris score: Severe, percentage of patients / patients with dose of nitroglycerin score 0 (%) / patients with dose of nitroglycerin score 1 (%) / patients with dose of nitroglycerin score 2 (%) / patients with dose of nitroglycerin score 4 (%) / patients with dose of nitroglycerin score 6 (%) / total angina pectoris score, Md / total angina pectoris score, Mean / change of total angina pectoris score, Md / change of total angina pectoris score, Mean / patients with change of dose of nitroglycerin score 0 (%) / patients with change of dose of nitroglycerin score 1 (%) / patients with change of dose of nitroglycerin score 2 (%) / patients with change of dose of nitroglycerin score 4 (%) / patients with change of dose of nitroglycerin score 6 (%) / patients with change of dose of nitroglycerin score −1 (%) / patients with change of dose of nitroglycerin score −2 (%) / patients with change of dose of nitroglycerin score −3 (%) / patients with change of dose of nitroglycerin score −4 (%) / patients with change of dose of nitroglycerin score −5 (%): PP; for attack times score, patients (%): month after treatment
Description: In order to better understand the present invention, a multi-center, randomized, double-blind, double-dummy and positive drug controlled trial had been conducted. 3508 patients who were in accordance with the diagnostic standards of AMI for 28 days to 2 years and differentiated as Qi deficiency and blood stagnation syndrome by TCM were studied. 0.5 g Chinese medicine composition prepared by the method of EXAMPLE 1 (Coded as QSYQ) was administrated half an hour after meal, 3 times per day. Aspirine was used as a positive drug. The patients were treated for 1 year and observed for 6 months.
They included the overall survival time, angina pectoris score, TCM symptom score and life quality score, where angina pectoris score, TCM symptom score and life quality score were evaluated at randomization, in 1st, 3rd, 6th, 9th, 12th month after treatment and 18th month after follow-up.
(§1) Total angina pectoris score was described on every observation period and the change of observation in comparison with baseline. T-test or Wilcoxon rank sum test were used for inter-group comparison. Grade of total score was evaluated on every observation and Wilcoxon rank sum test was used for inter-group comparison. T-test and Pairing signed rank sum test were used for analyzing the change of total score on every observation between groups in comparison with the baseline.
(§2) Single angina pectoris score was depicted on every observation time-point and the change of observation in comparison with baseline. Wilcoxon rank sum test was used for inter-group comparison. Pairing signed rank sum test was used for analyzing the change of total score on every observation between groups in comparison with the baseline.
as §1, with “comparison with the baseline. T-test” for “comparison with baseline. T-test”
as §2, with “described” for “depicted”

[1] = 6 months after treatment-baseline
[2] = 9 months after treatment-baseline
[3] = 12 months after treatment-baseline

## CC(=O)Oc1ccccc1C(=O)O [Control group, aspirine]
3 months after treatment-baseline
  patients with change of dose of nitroglycerin score −6 (%): (0.68%)
6 months after treatment
  distribution of total angina pectoris score: Medium, number of patients: 278
  distribution of total angina pectoris score: Medium, percentage of patients: (19.08%)
  distribution of total angina pectoris score: Mild, number of patients: 1172
  distribution of total angina pectoris score: Mild, percentage of patients: (80.44%)
  distribution of total angina pectoris score: Severe, number of patients: 7
  distribution of total angina pectoris score: Severe, percentage of patients: (0.48%)
  patients with dose of nitroglycerin score 0 (%): (67.13%)
  patients with dose of nitroglycerin score 1 (%): (1.03%)
  patients with dose of nitroglycerin score 2 (%): (27.85%)
  patients with dose of nitroglycerin score 4 (%): (2.75%)
  patients with dose of nitroglycerin score 6 (%): (1.24%)
  total angina pectoris score, Md: 5.00
  total angina pectoris score, Mean: 4.54
[1]
  change of total angina pectoris score, Md: −1.00
  change of total angina pectoris score, Mean: −2.58
  patients with change of dose of nitroglycerin score 0 (%): (69.47%)
  patients with change of dose of nitroglycerin score 1 (%): (0.48%)
  patients with change of dose of nitroglycerin score 2 (%): (4.14%)
  patients with change of dose of nitroglycerin score 4 (%): (0.28%)
  patients with change of dose of nitroglycerin score 6 (%): (0.28%)
  patients with change of dose of nitroglycerin score −1 (%): (0.28%)
  patients with change of dose of nitroglycerin score −2 (%): (19.43%)
  patients with change of dose of nitroglycerin score −3 (%): (0.00%)
  patients with change of dose of nitroglycerin score −4 (%): (4.41%)
  patients with change of dose of nitroglycerin score −5 (%): (0.21%)
  patients with change of dose of nitroglycerin score −6 (%): (1.03%)
9 months after treatment
  distribution of total angina pectoris score: Medium, number of patients: 233
  distribution of total angina pectoris score: Medium, percentage of patients: (16.15%)
  distribution of total angina pectoris score: Mild, number of patients: 1207
  distribution of total angina pectoris score: Mild, percentage of patients: (83.65%)
  distribution of total angina pectoris score: Severe, number of patients: 3
  distribution of total angina pectoris score: Severe, percentage of patients: (0.21%)
  patients with dose of nitroglycerin score 0 (%): (68.96%)
  patients with dose of nitroglycerin score 1 (%): (1.25%)
  patients with dose of nitroglycerin score 2 (%): (27.43%)
  patients with dose of nitroglycerin score 4 (%): (1.39%)
  patients with dose of nitroglycerin score 6 (%): (0.97%)
  total angina pectoris score, Md: 5.00
  total angina pectoris score, Mean: 4.10
[2]
  change of total angina pectoris score, Md: −2.00
  change of total angina pectoris score, Mean: −3.02
  patients with change of dose of nitroglycerin score 0 (%): (66.50%)
  patients with change of dose of nitroglycerin score 1 (%): (0.42%)
  patients with change of dose of nitroglycerin score 2 (%): (4.18%)
  patients with change of dose of nitroglycerin score 4 (%): (0.28%)
  patients with change of dose of nitroglycerin score 6 (%): (0.28%)
  patients with change of dose of nitroglycerin score −1 (%): (0.56%)
  patients with change of dose of nitroglycerin score −2 (%): (21.38%)
  patients with change of dose of nitroglycerin score −3 (%): (0.14%)
  patients with change of dose of nitroglycerin score −4 (%): (4.67%)
  patients with change of dose of nitroglycerin score −5 (%): (0.21%)
  patients with change of dose of nitroglycerin score −6 (%): (1.39%)
12 months after treatment
  distribution of total angina pectoris score: Medium, number of patients: 171
  distribution of total angina pectoris score: Medium, percentage of patients: (11.94%)
  distribution of total angina pectoris score: Mild, number of patients: 1259
  distribution of total angina pectoris score: Mild, percentage of patients: (87.92%)
  distribution of total angina pectoris score: Severe, number of patients: 2
  distribution of total angina pectoris score: Severe, percentage of patients: (0.14%)
  patients with dose of nitroglycerin score 0 (%): (74.81%)
  patients with dose of nitroglycerin score 1 (%): (1.33%)
  patients with dose of nitroglycerin score 2 (%): (22.18%)
  patients with dose of nitroglycerin score 4 (%): (0.91%)
  patients with dose of nitroglycerin score 6 (%): (0.77%)
  total angina pectoris score, Md: 0.00
  total angina pectoris score, Mean: 3.38
[3]
  change of total angina pectoris score, Md: −3.00
  change of total angina pectoris score, Mean: −3.71
  patients with change of dose of nitroglycerin score 0 (%): (64.63%)
  patients with change of dose of nitroglycerin score 1 (%): (0.63%)
  patients with change of dose of nitroglycerin score 2 (%): (2.88%)
  patients with change of dose of nitroglycerin score 4 (%): (0.07%)
  patients with change of dose of nitroglycerin score 6 (%): (0.28%)
  patients with change of dose of nitroglycerin score −1 (%): (0.63%)
  patients with change of dose of nitroglycerin score −2 (%): (23.37%)
  patients with change of dose of nitroglycerin score −3 (%): (0.07%)
  patients with change of dose of nitroglycerin score −4 (%): (5.47%)
  patients with change of dose of nitroglycerin score −5 (%): (0.07%)
  patients with change of dose of nitroglycerin score −6 (%): (1.89%)
Baseline
  distribution of total angina pectoris score: Medium, number of patients: 539
  distribution of total angina pectoris score: Medium, percentage of patients: (36.01%)
  distribution of total angina pectoris score: Mild, number of patients: 917
  distribution of total angina pectoris score: Mild, percentage of patients: (61.26%)
  distribution of total angina pectoris score: Severe, number of patients: 41
  distribution of total angina pectoris score: Severe, percentage of patients: (2.74%)
  total angina pectoris score, Md: 8.00
  total angina pectoris score, Mean: 7.20
Follow-up
  distribution of total angina pectoris score: Medium, number of patients: 192
  distribution of total angina pectoris score: Medium, percentage of patients: (13.64%)
  distribution of total angina pectoris score: Mild, number of patients: 1215
  distribution of total angina pectoris score: Mild, percentage of patients: (86.29%)
  distribution of total angina pectoris score: Severe, number of patients: 1
  distribution of total angina pectoris score: Severe, percentage of patients: (0.07%)
  patients with dose of nitroglycerin score 0 (%): (74.31%)
  patients with dose of nitroglycerin score 1 (%): (0.93%)
  patients with dose of nitroglycerin score 2 (%): (23.13%)
  patients with dose of nitroglycerin score 4 (%): (1.00%)
  patients with dose of nitroglycerin score 6 (%): (0.64%)
  total angina pectoris score, Md: 0.00
  total angina pectoris score, Mean: 3.60
Follow-up-baseline
  change of total angina pectoris score, Md: −2.00
  change of total angina pectoris score, Mean: −3.51
  patients with change of dose of nitroglycerin score 0 (%): (64.17%)
  patients with change of dose of nitroglycerin score 1 (%): (0.29%)
  patients with change of dose of nitroglycerin score 2 (%): (4.00%)
  patients with change of dose of nitroglycerin score 4 (%): (0.29%)
  patients with change of dose of nitroglycerin score 6 (%): (0.21%)
  patients with change of dose of nitroglycerin score −1 (%): (0.43%)
  patients with change of dose of nitroglycerin score −2 (%): (22.06%)
  patients with change of dose of nitroglycerin score −3 (%): (0.14%)
  patients with change of dose of nitroglycerin score −4 (%): (6.42%)
  patients with change of dose of nitroglycerin score −5 (%): (0.14%)
  patients with change of dose of nitroglycerin score −6 (%): (1.86%)
Score 0, FAS
  attack times score, patients (%): (36.58%)
Score 0, PP
  attack times score, patients (%): (36.33%)
Score 1, FAS
  attack times score, patients (%): (10.72%)
Score 1, PP
  attack times score, patients (%): (11.08%)
Score 2, FAS
  attack times score, patients (%): (46.56%)
Score 2, PP
  attack times score, patients (%): (46.88%)
Score 4, FAS
  attack times score, patients (%): (6.02%)
Score 4, PP
  attack times score, patients (%): (5.57%)
Score 6, FAS
  attack times score, patients (%): (0.11%)
Score 6, PP
  attack times score, patients (%): (0.13%)
